These results are taken from US20090227607A1, “DEAZAPURINES USEFUL AS INHIBITORS OF JANUS KINASES” (priority 2006, published 2009).

Structures are written as SMILES.

In one assay the target is JAK-2 enzyme (Homo sapiens, UniProt O60674). In words: JAK2 Inhibition Assay. The format is biochemical. As to conditions: 15 μM poly(Glu)4Tyr, 12 μM ATP, 25° C. The method, boiled down: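 JAK2 kinase in HEPES pH 7.4 buffer with MgCl2, DTT, NaCl and BSA; final 15 μM poly(Glu)4Tyr and 12 μM [33P]ATP. Enzyme added to start, 20 min at 25 °C, TCA stop, filter capture and scintillation count of 33P incorporation; Ki values.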
Sequence of JAK-2 enzyme (O60674 whole entry, species assumed): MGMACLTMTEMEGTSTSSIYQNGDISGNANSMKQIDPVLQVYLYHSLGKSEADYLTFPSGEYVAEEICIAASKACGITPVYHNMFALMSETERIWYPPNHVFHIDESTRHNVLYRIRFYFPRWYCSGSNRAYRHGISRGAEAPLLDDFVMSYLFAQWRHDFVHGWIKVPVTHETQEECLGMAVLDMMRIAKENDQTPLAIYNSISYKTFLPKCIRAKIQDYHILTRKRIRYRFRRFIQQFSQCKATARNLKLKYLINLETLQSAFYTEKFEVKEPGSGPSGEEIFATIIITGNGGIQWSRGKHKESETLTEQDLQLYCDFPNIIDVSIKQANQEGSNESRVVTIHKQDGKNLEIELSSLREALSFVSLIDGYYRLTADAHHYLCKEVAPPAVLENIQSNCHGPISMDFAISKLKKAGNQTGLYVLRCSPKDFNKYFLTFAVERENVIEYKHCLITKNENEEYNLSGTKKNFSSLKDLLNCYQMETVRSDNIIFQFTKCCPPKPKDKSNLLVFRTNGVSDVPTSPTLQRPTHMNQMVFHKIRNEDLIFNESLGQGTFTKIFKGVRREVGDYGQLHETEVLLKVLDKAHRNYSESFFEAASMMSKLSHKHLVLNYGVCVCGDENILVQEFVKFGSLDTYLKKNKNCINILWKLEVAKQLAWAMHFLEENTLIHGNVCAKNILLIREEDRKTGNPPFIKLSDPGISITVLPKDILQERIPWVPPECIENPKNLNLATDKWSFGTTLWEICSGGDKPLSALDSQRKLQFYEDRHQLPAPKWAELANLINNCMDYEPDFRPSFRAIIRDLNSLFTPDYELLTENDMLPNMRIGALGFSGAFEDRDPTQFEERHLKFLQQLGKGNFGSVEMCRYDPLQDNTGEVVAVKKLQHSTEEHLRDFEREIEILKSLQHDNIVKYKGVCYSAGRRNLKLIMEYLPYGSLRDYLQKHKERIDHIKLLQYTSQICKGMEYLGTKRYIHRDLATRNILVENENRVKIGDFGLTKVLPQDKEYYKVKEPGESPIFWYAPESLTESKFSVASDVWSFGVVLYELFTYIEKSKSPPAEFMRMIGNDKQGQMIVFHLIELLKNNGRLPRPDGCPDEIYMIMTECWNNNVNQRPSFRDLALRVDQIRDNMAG

A further assay has as its target T1, JAK3 (Homo sapiens, UniProt P52333).
T1 sequence (P52333 1-1124): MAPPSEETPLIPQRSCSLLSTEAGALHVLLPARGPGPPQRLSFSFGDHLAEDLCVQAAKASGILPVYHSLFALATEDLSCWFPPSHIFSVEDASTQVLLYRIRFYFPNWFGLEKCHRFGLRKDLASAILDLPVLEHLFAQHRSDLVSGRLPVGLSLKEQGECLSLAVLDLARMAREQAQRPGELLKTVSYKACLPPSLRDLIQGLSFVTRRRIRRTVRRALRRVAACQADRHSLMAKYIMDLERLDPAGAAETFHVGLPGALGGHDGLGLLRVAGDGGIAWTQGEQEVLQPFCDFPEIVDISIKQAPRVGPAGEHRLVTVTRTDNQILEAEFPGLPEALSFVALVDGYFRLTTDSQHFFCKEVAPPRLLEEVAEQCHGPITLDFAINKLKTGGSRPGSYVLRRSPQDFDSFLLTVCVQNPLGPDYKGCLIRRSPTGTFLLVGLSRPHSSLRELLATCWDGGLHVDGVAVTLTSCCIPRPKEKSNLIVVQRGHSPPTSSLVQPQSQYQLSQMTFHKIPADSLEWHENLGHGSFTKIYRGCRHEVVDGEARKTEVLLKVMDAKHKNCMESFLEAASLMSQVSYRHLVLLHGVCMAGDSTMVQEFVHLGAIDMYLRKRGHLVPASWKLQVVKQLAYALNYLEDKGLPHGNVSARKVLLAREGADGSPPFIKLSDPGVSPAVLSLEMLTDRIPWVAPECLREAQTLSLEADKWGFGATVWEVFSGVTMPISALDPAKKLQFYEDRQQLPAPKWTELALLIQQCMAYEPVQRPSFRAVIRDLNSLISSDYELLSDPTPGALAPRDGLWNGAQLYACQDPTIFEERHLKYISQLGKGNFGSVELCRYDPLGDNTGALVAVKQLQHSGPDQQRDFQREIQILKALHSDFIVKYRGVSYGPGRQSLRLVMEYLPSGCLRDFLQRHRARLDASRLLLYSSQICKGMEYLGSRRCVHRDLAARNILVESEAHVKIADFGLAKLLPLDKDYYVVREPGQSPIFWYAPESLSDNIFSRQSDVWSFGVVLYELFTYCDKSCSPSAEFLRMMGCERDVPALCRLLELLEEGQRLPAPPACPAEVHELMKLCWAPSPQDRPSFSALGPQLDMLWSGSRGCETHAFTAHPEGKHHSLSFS
Description: JAK3 Inhibition Assay. The format is biochemical. As to conditions: 1 μM poly(Glu)4Tyr, 5 μM ATP, 1 nM JAK3, 25° C.; read-out: JAK3 enzyme inhibition data (Ki). The method, boiled down:
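Radiometric JAK3 (1 nM) reaction with 5 μM [33P]ATP and 1 μM poly(Glu)4Tyr in HEPES pH 7.4 buffer, run for 20 min at 25 °C. Reactions were stopped with TCA and filter-captured, and 33P incorporation was counted; values reported as Ki.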

For `CN(C)CCCN(C)C(=O)c1cc(-c2ncnc3[nH]ccc23)c[nH]1` [Compound 44], the inhibition constant (Ki) at JAK-2 enzyme and on JAK3 was 500 to 5000 nM in each case.

`C[C@H](O)CNC(=O)c1cc(-c2ncnc3[nH]ccc23)c[nH]1` [Compound 140]: the Ki (as a rule, the dissociation constant of the complex between target and ligand, obtained from inhibition or displacement) on JAK-2 enzyme is under 100 nM; on JAK3 it was 100 to 500 nM.

Consider `CC(C)CN(CCC(F)(F)F)C(=O)c1cc(-c2ncnc3[nH]cc(Cl)c23)c[nH]1` [Compound 244], for which the inhibition constant (Ki) at JAK-2 enzyme was under 100 nM; on JAK3 it was 100 to 500 nM.

In the case of `CCN(Cc1ccncc1)C(=O)c1cc(-c2ncnc3[nH]ccc23)c[nH]1` [Compound 48], the inhibitory constant (Ki) at JAK-2 enzyme and on JAK3 was under 100 nM throughout.

For `O=C(c1cc(-c2ncnc3[nH]ccc23)c[nH]1)N1CCC(CO)CC1` [Compound 42], the Ki on JAK-2 enzyme fell in the range of 100 to 500 nM; on JAK3, 500 to 5000 nM.

For the molecule `O=C(NCC(F)F)c1cc(-c2ncnc3[nH]ccc23)c[nH]1` [Compound 10], the inhibition constant Ki at JAK-2 enzyme and at JAK3 was under 100 nM throughout.

As for `CCCN(CC)C(=O)c1cc(-c2ncnc3[nH]cc(C)c23)c[nH]1` [Compound 206], the inhibitory constant (Ki) is under 100 nM on JAK-2 enzyme and 100 to 500 nM on JAK3.

Take `CN(CCC#N)C(=O)c1ccc(-c2ncnc3[nH]ccc23)o1` [Compound 119]: the Ki at JAK-2 enzyme and at JAK3 was under 100 nM in each case.

In the case of `N#CCCN(CCC#N)C(=O)c1cc(-c2ncnc3[nH]ccc23)c[nH]1` [Compound 134], the Ki on JAK-2 enzyme and at JAK3 was under 100 nM throughout.

Regarding `O=C(Nc1nc(-c2ncnc3[nH]ccc23)cs1)C(O)C(F)(F)F` (stereo not drawn) [Compound 100], the Ki on JAK-2 enzyme and on JAK3 was under 100 nM each time.

As to `CC(C)CC(=O)N(CCCC(F)(F)F)c1nc(-c2ncnc3[nH]ccc23)cs1` [Compound 129], the inhibition constant Ki at JAK-2 enzyme was under 100 nM; on JAK3 it was 100 to 500 nM.

On to `CC(=O)NCCC(=O)Nc1nc(-c2ncnc3[nH]ccc23)cs1` [Compound 174], for which the figures for the inhibitory constant (Ki) on JAK-2 enzyme and on JAK3 were under 100 nM and 100 to 500 nM, respectively.

With `c1nc(-c2cn[nH]c2)c2cc[nH]c2n1` [Compound 5], the inhibitory constant (Ki) at JAK-2 enzyme and on JAK3 was 100 to 500 nM each time.

As to `CCC(CC)NC(=O)c1cc(-c2ncnc3[nH]ccc23)c[nH]1` [Compound 11], the Ki is under 100 nM on JAK-2 enzyme and 100 to 500 nM at JAK3.

With `CCC(C)n1cc(-c2ncnc3[nH]ccc23)cn1` (stereo not drawn) [Compound 35], the Ki on JAK-2 enzyme and on JAK3 was under 100 nM each time.

With `Cc1c[nH]c2ncnc(-c3c[nH]c(C(=O)N4C(C)C=CC4C)c3)c12` (stereo not drawn) [Compound 204], the Ki was under 100 nM on JAK-2 enzyme and 100 to 500 nM on JAK3.

For `CC(C)CN(CCC#N)C(=O)c1cc(-c2ncnc3[nH]ccc23)c[nH]1` [Compound 187], the inhibitory constant (Ki) at JAK-2 enzyme and at JAK3 was under 100 nM each time.

For `Cc1c[nH]c2ncnc(-c3cnn(CCC(C)C)c3)c12` [Compound 163], the values for the Ki at JAK-2 enzyme and at JAK3 were under 100 nM and 100 to 500 nM, respectively.

With `CC(C(=O)NCC1CCCO1)n1cc(-c2ncnc3[nH]ccc23)cn1` (stereo not drawn) [Compound 76], the Ki at JAK-2 enzyme and on JAK3 was 500 to 5000 nM throughout.

On to `O=C(CC1CC1)Nc1nc(-c2ncnc3[nH]ccc23)cs1` [Compound 70], for which the inhibition constant Ki at JAK-2 enzyme and on JAK3 was under 100 nM each time.

As for `O=C(c1cc(-c2ncnc3[nH]ccc23)c[nH]1)N1CCCC1CO` (stereo not drawn) [Compound 41], the Ki on JAK-2 enzyme lay within 100 to 500 nM; at JAK3, 500 to 5000 nM.

For `CN(CCC#N)C(=O)c1cc(-c2ncnc3[nH]ccc23)c[nH]1` [Compound 23], the Ki on JAK-2 enzyme and on JAK3 was under 100 nM in each case.

On to `O=C(c1ccc(-c2ncnc3[nH]ccc23)o1)N(CC1CCC1)CC(F)(F)F` [Compound 216], for which the Ki at JAK-2 enzyme and at JAK3 was under 100 nM in each case.

Regarding `CCCN(CC1CC1)C(=O)c1cc(-c2ncnc3[nH]ccc23)c[nH]1` [Compound 20], the inhibition constant (Ki) at JAK-2 enzyme and at JAK3 was under 100 nM each time.

Consider `C#CCN(C)C(=O)c1cc(-c2ncnc3[nH]ccc23)c[nH]1` [Compound 24], for which the Ki on JAK-2 enzyme was under 100 nM; at JAK3 it was 100 to 500 nM.

With `CC1CCC(C(=O)Nc2nc(-c3ncnc4[nH]ccc34)cs2)CC1` (stereo not drawn) [Compound 62], the figures for the inhibition constant (Ki) at JAK-2 enzyme and on JAK3 were under 100 nM and 100 to 500 nM, respectively.

Regarding `CC(=O)NCCCC(=O)Nc1nc(-c2ncnc3[nH]ccc23)cs1` [Compound 168], the Ki at JAK-2 enzyme was under 100 nM; at JAK3, 100 to 500 nM.

For the molecule `CC(C)CN(CCC(F)(F)F)C(=O)c1cc(-c2ncnc3[nH]ccc23)co1` [Compound 252], the Ki at JAK-2 enzyme and on JAK3 was 100 to 500 nM throughout.

For `N#CCCN(CC1CC1)C(=O)c1ccc(-c2ncnc3[nH]ccc23)o1` [Compound 125], the inhibition constant (Ki) at JAK-2 enzyme and at JAK3 was under 100 nM each time.

Consider `CCOC(=O)C1CCN(C(=O)c2cc(-c3ncnc4[nH]ccc34)c[nH]2)CC1` [Compound 43], for which the inhibition constant (Ki) at JAK-2 enzyme and on JAK3 was 500 to 5000 nM in each case.

With `O=C(NCC(F)(F)F)c1cc(-c2ncnc3[nH]ccc23)c[nH]1` [Compound 7], the inhibitory constant (Ki) at JAK-2 enzyme and at JAK3 was under 100 nM each time.

With `CC(C(=O)NCc1cccn1C)n1cc(-c2ncnc3[nH]ccc23)cn1` (stereo not drawn) [Compound 89], the Ki on JAK-2 enzyme was under 100 nM; at JAK3 it was 100 to 500 nM.

In the case of `CC(C)(C)OC(=O)N1CCCC(C(=O)Nc2nc(-c3ncnc4[nH]ccc34)cs2)C1` (stereo not drawn) [Compound 177], the Ki at JAK-2 enzyme and at JAK3 was 100 to 500 nM throughout.

`CCCCN(CCC)C(=O)c1cc(-c2ncnc3[nH]cc(C)c23)c[nH]1` [Compound 209]: the inhibitory constant (Ki) was under 100 nM on JAK-2 enzyme and 100 to 500 nM on JAK3.

`C=CC(=O)c1c[nH]c2ncnc(-c3ccoc3)c12` [Compound 253]: the figures for the inhibition constant Ki at JAK-2 enzyme and at JAK3 were 500 to 5000 nM and 100 to 500 nM, respectively.

On to `O=C(Nc1nc(-c2ncnc3[nH]ccc23)cs1)C1CCOCC1` [Compound 61], for which the Ki at JAK-2 enzyme and at JAK3 was under 100 nM in each case.

In the case of `C=CCN(CC=C)C(=O)c1cc(-c2ncnc3[nH]ccc23)co1` [Compound 245], the Ki on JAK-2 enzyme is under 100 nM; on JAK3, 100 to 500 nM.

Consider `CC(C(=O)N1CCCC1)n1cc(-c2ncnc3[nH]ccc23)cn1` (stereo not drawn) [Compound 87], for which the Ki at JAK-2 enzyme and on JAK3 was 100 to 500 nM each time.

As to `O=C(c1cc(-c2ncnc3[nH]ccc23)co1)N(CC1CC1)CC(F)(F)F` [Compound 231, N-(cyclopropylmethyl)-4-(7H-pyrrolo[2,3-d]pyrimidin-4-yl)-N-(2,2,2-trifluoroethyl)furan-2-carboxamide], the Ki on JAK-2 enzyme and at JAK3 was under 100 nM throughout.

Regarding `O=C(Nc1nc(-c2ncnc3[nH]ccc23)cs1)C1CCCC1O` (stereo not drawn) [Compound 60], the inhibition constant Ki at JAK-2 enzyme and on JAK3 was under 100 nM in each case.

On to `CCN(CCC#N)C(=O)c1cc(-c2ncnc3[nH]ccc23)c[nH]1` [Compound 16], for which the inhibitory constant (Ki) at JAK-2 enzyme and at JAK3 was under 100 nM in each case.

For `Cn1cc(-c2ncnc3[nH]ccc23)cc1C(=O)N(CCC(F)(F)F)CC1CCC1` [Compound 223], the inhibition constant (Ki) on JAK-2 enzyme and at JAK3 was under 100 nM throughout.

For `N#CCCN(CC1CC1)C(=O)c1cc(-c2ncnc3[nH]ccc23)c[nH]1` [Compound 115], the Ki on JAK-2 enzyme and at JAK3 was under 100 nM throughout.

As to `O=C(c1ccc(-c2ncnc3[nH]ccc23)o1)N(CCC(F)(F)F)CC1CCCC1` [Compound 212], the Ki on JAK-2 enzyme and on JAK3 was under 100 nM in each case.

For `CCCn1cc(-c2ncnc3[nH]cc(Cl)c23)cn1` [Compound 165], the Ki on JAK-2 enzyme was under 100 nM; on JAK3 it was 100 to 500 nM.

As to `CC(C)CCn1cc(-c2ncnc3[nH]ccc23)cn1` [Compound 107], the Ki was under 100 nM on JAK-2 enzyme and 100 to 500 nM on JAK3.

As to `O=C(c1ccc(-c2ncnc3[nH]ccc23)o1)N(CC1CCCC1)CC(F)(F)F` [Compound 191], the Ki at JAK-2 enzyme and at JAK3 was under 100 nM throughout.

`CC(C)CCn1cc(-c2ncnc3[nH]cc(Cl)c23)cn1` [Compound 164]: the inhibitory constant (Ki) on JAK-2 enzyme was under 100 nM; at JAK3, 100 to 500 nM.
